In PubChem BioAssay AID179 (DTP/NCI, 2004):
Active and inactive are the calls of the source.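 The calls were made as follows: active = compounds giving half or more protection of infected cells from virus-caused growth loss, again on retest; inactive = the rest.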

System: CEM cells HIV-1 protection, formazan growth assay
Test: NCI AIDS Antiviral Assay
Conditions: for IC50: measured here: growth of uninfected CEM cells
In short: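 Human CEM cells, uninfected and HIV-1-infected, received five drug concentrations, and growth was read by soluble formazan assay. Compounds giving at least 50% protection were retested; reproducible 100% protection defined confirmed active.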

Compound	EC50	IC50	outcome
CCOC(=O)c1ccc(N=C2C(=S)N(c3ccc(C(=O)OCC)cc3)C(=N)N2/N=C/c2ccccc2)cc1	> 200 µM	3.24 µM	–
CC(=O)C1Cn2c(=O)c3cc4ccccc4cc3c(=O)n2C=C1C (stereo unspecified)	> 112 µM	> 112 µM	–
CNC(=O)CN(C)C(=O)CCC(=O)N(C)C	> 200 µM	> 200 µM	–
CCc1cccc(CC)c1N1C(=O)C2=C(SCCCS2)C1=O	> 44.7 µM	24 µM	–
COC(=O)C(C)Sc1nc2cc(Cl)ccc2s1 (stereo unspecified)	> 200 µM	174 µM	–
CC1OC(OC2C(O)COC(OC3C(C)OC(OC4C(OC(=O)[C@]56CCC(C)(C)C[C@@H]5C5=CCC7[C@@]8(C)C[C@H](O)[C@H](OC9OC(CO)C(O)C(O)C9O)[C@@](C)(CO)[C@@H]8CC[C@@]7(C)[C@]5(C)CC6)OCC(O)C4O)C(O)C3OC3OCC(O)(CO)C3O)C2O)C(O)C(O)C1O (stereo partly specified)	> 30.2 µM	17.8 µM	–
CCCCNC(=S)Nc1nc(C(=O)NNC(=S)NCc2ccccc2)cs1	> 126 µM	26.3 µM	–
OC[C@H]1CCCC1O (stereo partly specified)	–	–	inactive
Cc1ccccc1NC(=O)Cc1csc2[n+]1C(=O)/C(=C\c1ccc3c(c1)OCO3)S2	> 200 µM	38.9 µM	–
Cc1ccccc1N=C(N)Nc1ccccc1C	> 200 µM	> 200 µM	–
O=S1(=O)C2C=CCC1C(c1ccccc1)CC2 (stereo unspecified)	> 1000 µM	> 1000 µM	–
COc1cc(C(=O)CC2OC(=O)C(Cl)=C2Cl)ccc1Cl (stereo unspecified)	> 741 µM	145 µM	–
CN(C)CCCN=C(N)CSP(=O)(O)O	> 200 µM	32.4 µM	–
O=c1[nH]nc(Cn2c3ccc(Br)cc3c3nc4ccccc4nc32)n1C1CCCCC1	> 200 µM	174 µM	–
CC1=Nc2ccc(C)cc2N=C(C)C1	> 200 µM	> 200 µM	–
COC1=NC2=NC(OC)=NC3=C(Br)C=C(Br)C(=N1)N23	> 9.77 µM	> 9.77 µM	–
C=CCC1CC(n2cc(C)c(=O)[nH]c2=O)OC1CO[Si](C)(C)C(C)(C)C (stereo unspecified)	> 200 µM	18.2 µM	–
O=c1nc(NC(c2ccccc2)(c2ccccc2)c2ccccc2)ccn1CCCl	–	–	inactive
COC(CNC(=O)C(C)NC(=O)C(C)NC(=O)c1ccccc1)OC (stereo unspecified)	–	–	inactive
Cc1cccc(N2C(=O)C(Cl)=C(Cl)C2=O)c1	–	–	inactive

Compound	EC50	IC50	outcome
C=C(CBr)CCCOCc1ccccc1	> 200 µM	105 µM	–
CCOC(=O)C(NC(=O)c1cccc(Cl)c1)(Nc1ccc(S(=O)(=O)Nc2cc(C)nc(C)n2)cc1)C(F)(F)F (stereo unspecified)	> 200 µM	> 200 µM	–
O=C1CCC2(CC1CCSc1ccccc1)OCCO2 (stereo unspecified)	> 200 µM	126 µM	–
COC1C=CC23c4cc5c(cc4COC2(O)CN(C)C3C1)OCO5 (stereo unspecified)	> 550 µM	> 550 µM	–
Cn1cnnc1Sc1c([N+](=O)[O-])nc(-c2ccc([N+](=O)[O-])cc2)n1C	> 100 µM	2.95 µM	–
NC(=O)CS(=O)(=O)NC(N)=O	> 200 µM	> 200 µM	–
CCOC(=O)c1c(N2CCCC2)ncn(C)c1=S	> 200 µM	> 200 µM	–
Cc1cc2c(cc1C)C(=O)/C(=C/c1ccccc1C(=O)O)C2	> 145 µM	45.7 µM	–
CCNC(=S)N/N=C/c1ccccn1	> 200 µM	0.851 µM	–
Cc1cc2c(cc1-c1cc3c(cc1C)C(C(C)C)=C(O)C(=O)/C3=C\Nc1c(C)n(C)n(-c3ccccc3)c1=O)/C(=C/Nc1c(C)n(C)n(-c3ccccc3)c1=O)C(=O)C(O)=C2C(C)C	> 200 µM	34.7 µM	–
CN(c1ccc(/C=C/c2ccccc2)cc1)P1(=O)NCCCO1 (stereo unspecified)	> 41.7 µM	28.2 µM	–
CC(CN1CCCCC1)SSC(C)CN1CCCCC1 (stereo unspecified)	> 200 µM	24 µM	–
C#C[C@]1(O)CC[C@H]2[C@@H]3CCC4=C/C(=N/OC(=O)c5cccc6c(=O)c7ccccc7[nH]c56)CC[C@@H]4[C@H]3CC[C@@]21C	> 200 µM	30.9 µM	–
c1ccc(CCN(Cc2nc3ccccc3[nH]2)Cc2nc3ccccc3[nH]2)cc1	> 200 µM	10.5 µM	–
CC1(C)Oc2ccc3ccc(=O)oc3c2[C@@H](OC(=O)C23CCC(C)(C(=O)O2)C3(C)C)[C@H]1OC(=O)C12CCC(C)(C(=O)O1)C2(C)C (stereo partly specified)	2.95 µM	14.1 µM	–
CCCC(C)C[C@@H](C)CC(C)/C=C(\C)c1oc(=O)c(C)c(O)c1C (stereo partly specified) (tested in a mixture with another compound)	–	–	inactive
Cc1ccc(NC(=O)CC2SC(N)=NC2=O)cc1C (stereo unspecified)	–	–	inactive
COc1ccc(C2=Nc3ccccc3SC(C)C2)cc1 (stereo unspecified)	> 13.2 µM	> 13.2 µM	–
CCN(CCCl)c1cc(C(=O)NCCCN(C)CCCNC(=O)c2cc(N(CC)CCCl)c([N+](=O)[O-])cc2[N+](=O)[O-])c([N+](=O)[O-])cc1[N+](=O)[O-]	> 200 µM	10.7 µM	–
N#C/C(C(=N)c1ccccc1)=C1\SS/C(=C(\C#N)C(=N)c2ccccc2)S1	> 200 µM	6.03 µM	–

Compound	EC50	IC50	outcome
COc1cccc(CC2C(=O)NC(=O)NC2=O)c1	> 200 µM	> 200 µM	–
Cc1c(C(=O)c2ccccc2)n(COCCCO[Si](C)(C)C(C)(C)C)c(=O)[nH]c1=O	> 200 µM	11.7 µM	–
CC(Cc1ccc(O)c(O)c1)C(C)Cc1ccc(O)c(O)c1 (stereo unspecified)	> 200 µM	8.91 µM	–
O=C1C(c2ccccc2)=C(c2ccccc2)[C@H](c2ccccc2)[C@]1(Cc1nnn(-c2ccc([N+](=O)[O-])cc2)c1N1CCOCC1)c1ccccc1	–	–	inactive
COc1ccc(-c2c(C(C)=O)c(-c3ccccc3)n(C3OC(CO)C(O)C(O)C3O)c(=S)c2C#N)cc1 (stereo unspecified)	> 200 µM	> 200 µM	–
CCN(CC)CCC(=O)c1ccc(C)cc1	> 6170 µM	331 µM	–
C1COCCSC2=C(SCCO1)SC(=C1SC3=C(SCCOCCOCCS3)S1)S2	> 17.8 µM	> 17.8 µM	–
COC(=O)C1=CCC[C@H]2C1(C)CCC(C)C21CC(c2ccoc2)OC1=O (stereo partly specified)	> 100 µM	51.3 µM	–
CC1N(N2C(=O)CS(=O)(=O)C2C)C(=O)CS1(=O)=O (stereo unspecified)	> 200 µM	> 200 µM	–
C=C1C(C(=O)OC)[C@@]2(C)C(C(=O)OC)C(=O)C(C(=O)OC)[C@@]2(CCC)C1C(=O)OC (stereo partly specified)	> 141 µM	72.4 µM	–
O=C(O)c1ccccc1C(=O)c1ccc(F)cc1	–	–	inactive
COc1ccc(/C=C/C(=O)Oc2cc(O)cc(O)c2)cc1	> 200 µM	4.57 µM	–
CCOC(=O)c1ccc(C(=O)OCC)n1-c1cc2cc(c1)CSCc1cc(cc(-n3c(C(=O)OCC)ccc3C(=O)OCC)c1)CSC2	> 200 µM	> 200 µM	–
Brc1csnn1	> 200 µM	> 200 µM	–
O=C(N/N=C1\C(=O)N(c2nccs2)C(=O)C(=O)C1c1nc2ccccc2s1)c1ccccc1O (stereo unspecified)	–	–	inactive
CCOP1(=O)CC(C)=C(Cl)C(OC)C1 (stereo unspecified)	> 200 µM	107 µM	–
CC1(C)N=C(C(N)=O)c2ncn(Cc3ccccc3)c2N1	> 200 µM	> 200 µM	–
O=C(Nc1c(Cl)cc([N+](=O)[O-])cc1Cl)C(=O)C(C1OC(=O)c2ccccc21)[N+](=O)[O-] (stereo unspecified)	> 57.5 µM	> 57.5 µM	–
O=C1OCCOCCOCCOCCOC(=O)c2cccc1c2	> 155 µM	> 155 µM	–
O=C(CN1CCN(c2cccc(Cl)c2)CC1)N1CCc2c([nH]c3ccccc23)C1c1cccnc1 (stereo unspecified)	> 2.14 µM	> 2.14 µM	–
